Tests used:
Human δ-opioid (DOP) = target: T1, Human δ-opioid (DOP) (Homo sapiens, UniProt P41143); experiment: Radioligand binding, human δ-opioid (DOP) membranes, FlashPlate, [3H]-Bremazocine; conditions: compound at 10 μM, [3H]-Bremazocine
T1 construct: purchased Perkin Elmer Biosignal
How it was run: (§1)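 Cloned human receptor membranes were coated onto FlashPlate wells and incubated with radioligand and compound (added from a 0.5 mM DMSO daughter plate) for 1 hour at room temperature in the dark. Scintillation counting gave percent inhibition, with DMSO defining total and reference ligand defining non-specific binding.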

Human κ-Opioid (KOP) = target: T2, Human κ-Opioid (KOP) (Homo sapiens, UniProt P41145); experiment: Radioligand binding, human κ-opioid (KOP) membranes, filtration, [3H]-Diprenorphine; conditions: compound at 10 μM, [3H]-Diprenorphine
T2 construct: purchased Perkin Elmer Biosignal
How it was run: (§2)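 Percent inhibition of radioligand binding measured on recombinant human membranes: NK1 with [125I]-Substance P, KOP with [3H]-Diprenorphine. Incubation 1 h at room temperature, then harvest onto 0.3% PEI-soaked filters, cold Tris-HCl pH 7.4 washes and scintillation counting; non-specific binding from reference ligand wells.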

Human Melanocortin (MC3) = target: T3, Human Melanocortin (MC3) (Homo sapiens, UniProt P41968); experiment: Radioligand binding, human melanocortin MC3 membranes, FlashPlate, [125I]-NDP-αMSH; conditions: compound at 10 μM, [125I]-NDP-αMSH
T3 construct: purchased Perkin Elmer Biosignal
How it was run: as §1

Human Melanocortin (MC4) = target: T4, Human Melanocortin (MC4) (Homo sapiens, UniProt P32245); experiment: Radioligand binding, human melanocortin MC4 membranes, FlashPlate, [125I]-NDP-αMSH; conditions: compound at 10 μM, [125I]-NDP-αMSH
T4 construct: purchased Perkin Elmer Biosignal
How it was run: as §1

Human melanocortin (MC5) = target: T5, Human melanocortin (MC5) (Homo sapiens, UniProt P33032); experiment: Radioligand binding, human melanocortin MC5 membranes, FlashPlate, [125I]-NDP-αMSH; conditions: compound at 10 μM, [125I]-NDP-αMSH
T5 construct: purchased Perkin Elmer Biosignal
How it was run: as §1

[1] = target: T6, Human melanin-concentrating hormone (MCH1) (Homo sapiens, UniProt Q99705); experiment: Radioligand binding, human melanin-concentrating hormone MCH1 membranes, FlashPlate, [125I]-S36057; conditions: compound at 10 μM; for A6 radioligand binding, percentage inhibition: [125I]-S36057
T6 construct: purchased Perkin Elmer Biosignal
How it was run: as §1

Human μ-opioid (MOP) = target: T7, Human μ-opioid (MOP) (Homo sapiens, UniProt P35372); experiment: Radioligand binding, human μ-opioid (MOP) membranes, FlashPlate, [3H]-Naloxone; conditions: compound at 10 μM, [3H]-Naloxone
T7 construct: purchased Perkin Elmer Biosignal
How it was run: as §1

Human neurokinin (NK1) = target: T8, Human neurokinin (NK1) (Homo sapiens, UniProt P25103); experiment: Radioligand binding, human neurokinin NK1 membranes, filtration, [125I]-Substance P; conditions: compound at 10 μM, [125I]-Substance P
T8 construct: purchased Perkin Elmer Biosignal
How it was run: as §2

[2] = target: T9, Human neuropeptide Y (NPY-Y1) (Homo sapiens, UniProt P25929); experiment: Radioligand binding, human neuropeptide Y NPY-Y1 membranes, FlashPlate, [125I]-PYY; conditions: compound at 10 μM, [125I]-PYY
T9 construct: purchased Perkin Elmer Biosignal
T9 sequence (P25929 1-384): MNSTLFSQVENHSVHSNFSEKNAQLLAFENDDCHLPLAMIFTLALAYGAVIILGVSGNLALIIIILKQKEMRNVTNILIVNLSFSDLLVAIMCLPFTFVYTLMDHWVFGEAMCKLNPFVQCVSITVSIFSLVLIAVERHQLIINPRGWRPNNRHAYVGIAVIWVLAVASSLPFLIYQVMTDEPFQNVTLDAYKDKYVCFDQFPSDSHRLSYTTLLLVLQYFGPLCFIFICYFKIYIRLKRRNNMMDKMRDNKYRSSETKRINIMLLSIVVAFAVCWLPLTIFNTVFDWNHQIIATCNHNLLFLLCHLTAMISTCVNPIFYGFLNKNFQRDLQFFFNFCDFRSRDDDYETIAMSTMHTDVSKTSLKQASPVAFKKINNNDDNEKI
How it was run: as §1

Human opioid (ORL1) = target: T10, Human opioid (ORL1) (Homo sapiens, UniProt P41146); experiment: Radioligand binding, human opioid ORL1 membranes, FlashPlate, [125I]-Nociceptin; conditions: compound at 10 μM, [125I]-Nociceptin
T10 construct: purchased Perkin Elmer Biosignal
How it was run: as §1

Mouse urotensin (mUR2) = target: T11, Mouse urotensin (mUR2) (Mus musculus, UniProt Q8VIH9); experiment: Radioligand binding, mouse urotensin mUR2 membranes, FlashPlate, [125I]-Urotensin II; conditions: compound at 10 μM, [125I]-Urotensin II
T11 construct: purchased Perkin Elmer Biosignal
T11 sequence (Q8VIH9 1-385): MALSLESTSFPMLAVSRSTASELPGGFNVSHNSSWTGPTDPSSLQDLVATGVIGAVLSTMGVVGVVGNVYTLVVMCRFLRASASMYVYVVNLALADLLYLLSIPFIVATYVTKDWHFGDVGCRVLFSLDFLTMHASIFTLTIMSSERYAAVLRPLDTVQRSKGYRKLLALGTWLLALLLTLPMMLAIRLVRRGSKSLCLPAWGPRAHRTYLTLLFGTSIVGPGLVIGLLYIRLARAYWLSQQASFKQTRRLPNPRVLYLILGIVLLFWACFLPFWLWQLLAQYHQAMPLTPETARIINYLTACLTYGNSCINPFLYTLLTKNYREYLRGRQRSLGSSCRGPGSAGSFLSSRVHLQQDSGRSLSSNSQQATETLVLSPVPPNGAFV
How it was run: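 Cloned mouse urotensin (mUR2) receptor membranes from Perkin Elmer Biosignal were immobilized in FlashPlate microplates using a proprietary coating. Each well got 19.5 μl buffer, then 0.5 μl of DMSO, reference ligand, or compound. Adding 5 μl of [125I]-Urotensin II, diluted to 5× final concentration in binding buffer, started binding. Plates were sealed with TopSeal-A and incubated 1 hour at room temperature in the dark. Wells were counted for 30 seconds each on a TopCount after a 60-second delay, and percentage inhibition was calculated.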

T6 sequence (Q99705 whole entry): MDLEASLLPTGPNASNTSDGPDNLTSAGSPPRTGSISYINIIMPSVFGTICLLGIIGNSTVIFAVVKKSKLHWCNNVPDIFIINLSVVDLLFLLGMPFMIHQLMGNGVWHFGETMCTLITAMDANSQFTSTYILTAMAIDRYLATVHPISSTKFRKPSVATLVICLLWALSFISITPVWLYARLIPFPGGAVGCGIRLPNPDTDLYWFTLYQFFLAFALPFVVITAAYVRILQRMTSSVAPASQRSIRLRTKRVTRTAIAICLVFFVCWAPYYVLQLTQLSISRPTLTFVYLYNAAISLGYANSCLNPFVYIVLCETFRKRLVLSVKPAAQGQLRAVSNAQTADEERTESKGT
T3 sequence (P41968 whole entry): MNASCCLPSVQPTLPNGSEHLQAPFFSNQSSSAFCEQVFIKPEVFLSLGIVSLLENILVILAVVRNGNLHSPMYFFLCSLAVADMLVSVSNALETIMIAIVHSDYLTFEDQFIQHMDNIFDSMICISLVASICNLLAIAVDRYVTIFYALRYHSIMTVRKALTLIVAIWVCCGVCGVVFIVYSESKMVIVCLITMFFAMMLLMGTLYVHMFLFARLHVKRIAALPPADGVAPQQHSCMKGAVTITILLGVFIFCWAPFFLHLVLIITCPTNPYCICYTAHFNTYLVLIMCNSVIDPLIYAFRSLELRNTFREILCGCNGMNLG
T7 sequence (P35372 whole entry): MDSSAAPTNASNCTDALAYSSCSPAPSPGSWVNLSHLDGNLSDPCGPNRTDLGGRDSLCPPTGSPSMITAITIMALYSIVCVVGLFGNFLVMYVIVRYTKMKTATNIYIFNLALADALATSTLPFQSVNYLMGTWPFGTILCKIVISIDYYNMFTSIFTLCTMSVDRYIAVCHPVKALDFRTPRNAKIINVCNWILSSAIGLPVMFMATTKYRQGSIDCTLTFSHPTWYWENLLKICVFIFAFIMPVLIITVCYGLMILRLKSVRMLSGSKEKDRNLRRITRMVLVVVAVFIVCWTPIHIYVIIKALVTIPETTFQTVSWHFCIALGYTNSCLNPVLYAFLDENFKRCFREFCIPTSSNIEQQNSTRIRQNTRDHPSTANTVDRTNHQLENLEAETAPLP
T4 sequence (P32245 whole entry): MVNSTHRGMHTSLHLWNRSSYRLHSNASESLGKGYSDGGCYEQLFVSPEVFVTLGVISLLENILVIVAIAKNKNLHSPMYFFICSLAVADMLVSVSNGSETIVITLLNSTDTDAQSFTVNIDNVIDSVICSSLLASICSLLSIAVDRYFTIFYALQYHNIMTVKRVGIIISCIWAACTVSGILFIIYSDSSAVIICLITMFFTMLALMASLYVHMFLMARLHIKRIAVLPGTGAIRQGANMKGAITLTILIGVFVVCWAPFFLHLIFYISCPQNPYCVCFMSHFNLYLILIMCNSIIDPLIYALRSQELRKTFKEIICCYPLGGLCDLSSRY
T2 sequence (P41145 whole entry): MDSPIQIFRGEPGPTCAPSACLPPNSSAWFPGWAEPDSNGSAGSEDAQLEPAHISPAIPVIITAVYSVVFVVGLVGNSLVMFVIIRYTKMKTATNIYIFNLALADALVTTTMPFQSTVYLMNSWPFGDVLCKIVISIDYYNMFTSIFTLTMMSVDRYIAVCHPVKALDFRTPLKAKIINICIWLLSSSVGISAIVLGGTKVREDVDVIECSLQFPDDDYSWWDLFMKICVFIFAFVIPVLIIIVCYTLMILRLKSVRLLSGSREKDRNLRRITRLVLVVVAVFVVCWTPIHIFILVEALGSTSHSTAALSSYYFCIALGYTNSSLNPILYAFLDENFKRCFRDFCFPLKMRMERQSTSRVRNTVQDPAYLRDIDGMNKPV
T1 sequence (P41143 whole entry): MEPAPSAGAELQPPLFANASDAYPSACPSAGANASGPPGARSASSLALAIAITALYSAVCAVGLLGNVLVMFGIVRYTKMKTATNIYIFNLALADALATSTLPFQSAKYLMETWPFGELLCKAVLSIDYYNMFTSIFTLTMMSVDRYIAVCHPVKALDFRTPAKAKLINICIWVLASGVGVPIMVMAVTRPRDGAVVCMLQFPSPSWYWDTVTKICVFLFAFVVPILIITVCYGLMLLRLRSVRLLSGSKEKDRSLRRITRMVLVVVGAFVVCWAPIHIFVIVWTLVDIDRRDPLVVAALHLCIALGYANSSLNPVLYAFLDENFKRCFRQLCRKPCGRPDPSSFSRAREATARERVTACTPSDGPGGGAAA
T5 sequence (P33032 whole entry): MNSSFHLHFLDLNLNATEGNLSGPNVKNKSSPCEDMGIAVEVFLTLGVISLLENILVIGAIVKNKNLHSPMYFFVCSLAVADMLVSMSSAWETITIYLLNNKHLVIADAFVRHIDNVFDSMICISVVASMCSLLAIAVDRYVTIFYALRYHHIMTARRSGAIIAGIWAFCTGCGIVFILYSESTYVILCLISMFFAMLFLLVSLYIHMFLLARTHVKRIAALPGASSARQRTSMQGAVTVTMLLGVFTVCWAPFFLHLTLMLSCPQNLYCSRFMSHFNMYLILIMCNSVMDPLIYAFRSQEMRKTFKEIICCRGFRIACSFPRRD
T8 sequence (P25103 whole entry): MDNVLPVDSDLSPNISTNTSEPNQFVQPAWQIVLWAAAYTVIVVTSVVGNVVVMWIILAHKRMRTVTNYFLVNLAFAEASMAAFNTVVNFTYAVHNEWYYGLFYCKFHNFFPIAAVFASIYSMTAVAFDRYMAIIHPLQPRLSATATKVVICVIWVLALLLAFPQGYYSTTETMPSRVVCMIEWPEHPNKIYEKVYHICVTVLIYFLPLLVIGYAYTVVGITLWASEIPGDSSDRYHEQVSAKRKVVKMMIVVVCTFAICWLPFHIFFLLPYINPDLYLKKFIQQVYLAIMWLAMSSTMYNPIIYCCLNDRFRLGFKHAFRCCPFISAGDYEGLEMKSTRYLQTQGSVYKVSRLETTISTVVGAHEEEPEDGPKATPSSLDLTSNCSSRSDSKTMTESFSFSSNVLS
T10 sequence (P41146 whole entry): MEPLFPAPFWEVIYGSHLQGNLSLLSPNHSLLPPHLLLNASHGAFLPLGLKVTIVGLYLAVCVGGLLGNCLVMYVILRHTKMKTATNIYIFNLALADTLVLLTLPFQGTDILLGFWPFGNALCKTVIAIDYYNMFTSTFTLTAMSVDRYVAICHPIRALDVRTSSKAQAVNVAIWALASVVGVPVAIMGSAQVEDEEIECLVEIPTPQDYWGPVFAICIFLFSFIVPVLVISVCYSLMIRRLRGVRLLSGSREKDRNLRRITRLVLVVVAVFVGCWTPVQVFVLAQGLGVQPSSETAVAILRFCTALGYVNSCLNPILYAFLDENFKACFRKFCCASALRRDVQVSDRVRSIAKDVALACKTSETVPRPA

Row | SMILES | A1: inhibition of radioligand binding (Human δ-opioid (DOP); FlashPlate) | A2: inhibition of radioligand binding (Human κ-Opioid (KOP); filtration) | A3: inhibition of radioligand binding (Human Melanocortin (MC3); FlashPlate) | A4: inhibition of radioligand binding (Human Melanocortin (MC4); FlashPlate) | A5: inhibition of radioligand binding (Human melanocortin (MC5); FlashPlate) | A6: inhibition of radioligand binding ([1]; [125I]-S36057, FlashPlate) | A7: inhibition of radioligand binding (Human μ-opioid (MOP); FlashPlate) | A8: inhibition of radioligand binding (Human neurokinin (NK1); filtration) | A9: inhibition of radioligand binding ([2]; FlashPlate) | A10: inhibition of radioligand binding (Human opioid (ORL1); FlashPlate) | A11: inhibition of radioligand binding (Mouse urotensin (mUR2); FlashPlate) | A1 radioligand binding, percentage inhibition (Human δ-opioid (DOP)) | A2 radioligand binding, percentage inhibition (Human κ-Opioid (KOP)) | A3 radioligand binding, percentage inhibition (Human Melanocortin (MC3)) | A4 radioligand binding, percentage inhibition (Human Melanocortin (MC4)) | A5 radioligand binding, percentage inhibition (Human melanocortin (MC5)) | A6 radioligand binding, percentage inhibition [1] | A7 radioligand binding, percentage inhibition (Human μ-opioid (MOP)) | A8 radioligand binding, percentage inhibition (Human neurokinin (NK1)) | A9 radioligand binding, percentage inhibition [2] | further results
1 | COCC1OC(OCCc2ccccc2)C(NC(=O)CCCNC(=N)N)C(OCc2ccccc2)C1O (stereo not shown) [compound 218] | − (“−” indicates less than 50% inhibition at 10 μM) | − (“−” indicates less than 50% inhibition at 10 μM) | − (“−” indicates less than 50% inhibition at 10 μM) | − (“−” indicates less than 50% inhibition at 10 μM) | − (“−” indicates less than 50% inhibition at 10 μM) | − (“−” indicates less than 50% inhibition at 10 μM) | − (“−” indicates less than 50% inhibition at 10 μM) | + (“+” indicates greater than 50% inhibition at 10 μM) | − (“−” indicates less than 50% inhibition at 10 μM) | − (“−” indicates less than 50% inhibition at 10 μM) | − (“−” indicates less than 50% inhibition at 10 μM) | – | – | – | – | – | – | – | – | – | –
2 | COCC1OC(OCc2ccc(Cl)cc2)C(NC(=O)CN)C(OCc2ccc3ccccc3c2)C1O (stereo not shown) [compound 208] | − (“−” indicates less than 50% inhibition at 10 μM) | − (“−” indicates less than 50% inhibition at 10 μM) | − (“−” indicates less than 50% inhibition at 10 μM) | − (“−” indicates less than 50% inhibition at 10 μM) | + (“+” indicates greater than 50% inhibition at 10 μM) | − (“−” indicates less than 50% inhibition at 10 μM) | − (“−” indicates less than 50% inhibition at 10 μM) | + (“+” indicates greater than 50% inhibition at 10 μM) | − (“−” indicates less than 50% inhibition at 10 μM) | − (“−” indicates less than 50% inhibition at 10 μM) | − (“−” indicates less than 50% inhibition at 10 μM) | – | – | – | – | – | – | – | – | – | –
3 | COC[C@H]1OC(OCCNC(=N)N)[C@H](NC(=O)c2ccccc2)[C@@H](OCc2ccc3ccccc3c2)[C@@H]1O (stereo partly shown) [compound 123] | – | – | – | – | – | – | – | – | – | – | – | − (“−” indicates less than 50% inhibition at 10 μM) | − (“−” indicates less than 50% inhibition at 10 μM) | − (“−” indicates less than 50% inhibition at 10 μM) | − (“−” indicates less than 50% inhibition at 10 μM) | + (“+” indicates greater than 50% inhibition at 10 μM) | − (“−” indicates less than 50% inhibition at 10 μM) | − (“−” indicates less than 50% inhibition at 10 μM) | + (“+” indicates greater than 50% inhibition at 10 μM) | − (“−” indicates less than 50% inhibition at 10 μM) | A10 radioligand binding, percentage inhibition (Human opioid (ORL1)): − (“−” indicates less than 50% inhibition at 10 μM); A11 radioligand binding, percentage inhibition (Mouse urotensin (mUR2)): − (“−” indicates less than 50% inhibition at 10 μM)
4 | N=C(N)NCCC(=O)NC1C(OCc2ccc(-c3ccccc3)cc2)OC(COCc2ccc(Cl)cc2)C(O)C1OCc1ccc(Cl)cc1 (stereo not shown) [compound 410] | – | – | – | – | – | – | – | – | – | – | – | – | – | – | – | – | – | – | – | – | A1: inhibition of radioligand binding (Human δ-opioid (DOP); human DOP membranes): − (“−” indicates less than 50% inhibition at 10 μM); A2: inhibition of radioligand binding (Human κ-Opioid (KOP); human KOP membranes): − (“−” indicates less than 50% inhibition at 10 μM); A3: inhibition of radioligand binding (Human Melanocortin (MC3); human MC3 membranes): + (“+” indicates greater than 50% inhibition at 10 μM); A4: inhibition of radioligand binding (Human Melanocortin (MC4); human MC4 membranes): + (“+” indicates greater than 50% inhibition at 10 μM); A5: inhibition of radioligand binding (Human melanocortin (MC5); human MC5 membranes): + (“+” indicates greater than 50% inhibition at 10 μM); A6: inhibition of radioligand binding ([1]; [125I]-S36057, human MCH1 membranes): + (“+” indicates greater than 50% inhibition at 10 μM); A7: inhibition of radioligand binding (Human μ-opioid (MOP); human MOP membranes): − (“−” indicates less than 50% inhibition at 10 μM); A8: inhibition of radioligand binding (Human neurokinin (NK1); human NK1 membranes): + (“+” indicates greater than 50% inhibition at 10 μM); A9: inhibition of radioligand binding ([2]; human NPY-Y1 membranes): − (“−” indicates less than 50% inhibition at 10 μM); A10: inhibition of radioligand binding (Human opioid (ORL1); human ORL1 membranes): + (“+” indicates greater than 50% inhibition at 10 μM); A11: inhibition of radioligand binding (Mouse urotensin (mUR2); mouse mUR2 membranes): − (“−” indicates less than 50% inhibition at 10 μM)
5 | CO[C@H]1[C@H](O)[C@@H](COCc2cccc(O)c2)OC(OCc2ccc(-c3ccccc3)cc2)[C@@H]1NC(=O)CNC(=N)N (stereo partly shown) [compound 146] | – | – | – | – | – | – | – | – | – | – | – | − (“−” indicates less than 50% inhibition at 10 μM) | + (“+” indicates greater than 50% inhibition at 10 μM) | − (“−” indicates less than 50% inhibition at 10 μM) | − (“−” indicates less than 50% inhibition at 10 μM) | + (“+” indicates greater than 50% inhibition at 10 μM) | − (“−” indicates less than 50% inhibition at 10 μM) | − (“−” indicates less than 50% inhibition at 10 μM) | + (“+” indicates greater than 50% inhibition at 10 μM) | − (“−” indicates less than 50% inhibition at 10 μM) | A10 radioligand binding, percentage inhibition (Human opioid (ORL1)): − (“−” indicates less than 50% inhibition at 10 μM); A11 radioligand binding, percentage inhibition (Mouse urotensin (mUR2)): − (“−” indicates less than 50% inhibition at 10 μM)

Source: US20080009418A1, “Selective Inhibitors” (Alchemia LTD., priority 2004, published 2008)
